Values after ≈ are worked out from the molar mass of the structure shown.
How the values were obtained:
Experiment in all cases: In vitro antifungal activity, microbroth dilution MIC
Type in all cases: cell-based
[1] = test system: Candida parapsitosis A. 7330; conditions: 4 to 48 hours; for Minimal inhibitory concentration(MIC), C. parapsitosis A. 7330: RPMI-1640, 35° C., no growth observed; for Minimal inhibitory concentration (MIC): C. parapsitosis A. 7330, RPMI-1640, 35° C.
Method in brief: (§1)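 Broth microdilution adapted from NCCLS M27, in RPMI-1640 with 0.165 M MOPS, pH 7.0. Yeast or mould inoculum at 2×10^3 CFU/ml was mixed 1:1 with DMSO-derived compound solutions (200 to 0.10 μg/ml before mixing) and incubated at 35 °C for 4 to 48 h. MIC was the concentration showing no growth.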

[2] = test system: Cryptococcus neoformans IFM. 40092; conditions: 4 to 48 hours; for Minimal inhibitory concentration(MIC), Cry. neoformans IFM. 40092: RPMI-1640, 35° C., no growth observed; for Minimal inhibitory concentration (MIC): Cry. neoformans IFM. 40092, RPMI-1640, 35° C.
Method in brief: as §1

[3] = test system: Candida pseudotropicalis K. 11658; conditions: 4 to 48 hours; for Minimal inhibitory concentration(MIC), C. pseudotropicalis K. 11658: RPMI-1640, 35° C., no growth observed; for Minimal inhibitory concentration (MIC): C. pseudotropicalis K. 11658, RPMI-1640, 35° C.
Method in brief: as §1

[4] = test system: Cryptococcus neoformans A. 34144; conditions: 4 to 48 hours; for Minimal inhibitory concentration(MIC), Cry. neoformans A. 34144: RPMI-1640, 35° C., no growth observed; for Minimal inhibitory concentration (MIC): Cry. neoformans A. 34144, RPMI-1640, 35° C.
Method in brief: as §1

[5] = test system: Aspergillus furnigatus B. 19119; conditions: 4 to 48 hours; for Minimal inhibitory concentration(MIC), A furnigatus B. 19119: RPMI-1640, 35° C., no growth observed; for Minimal inhibitory concentration (MIC): A furnigatus B. 19119, RPMI-1640, 35° C.
Method in brief: as §1

[6] = test system: Cryptococcus neoformans B. 42419; conditions: 4 to 48 hours; for Minimal inhibitory concentration(MIC), Cry. neoformans B. 42419: RPMI-1640, 35° C., no growth observed; for Minimal inhibitory concentration (MIC): Cry. neoformans B. 42419, RPMI-1640, 35° C.
Method in brief: as §1

[7] = test system: Candida tropicalis A. 13803; conditions: 4 to 48 hours; for Minimal inhibitory concentration(MIC), C. tropicalis A. 13803: RPMI-1640, 35° C., no growth observed; for Minimal inhibitory concentration (MIC): C. tropicalis A. 13803, RPMI-1640, 35° C.
Method in brief: as §1

[8] = test system: Trichophyton mentagrophytes B. 32663; conditions: 4 to 48 hours; for Minimal inhibitory concentration(MIC), T. mentagrophytes B. 32663: RPMI-1640, 35° C., no growth observed; for Minimal inhibitory concentration (MIC): T. mentagrophytes B. 32663, RPMI-1640, 35° C.
Method in brief: as §1

[9] = test system: Trichophyton mentagrophytes A. 9129; conditions: 4 to 48 hours; for Minimal inhibitory concentration(MIC), T. mentagrophytes A. 9129: RPMI-1640, 35° C., no growth observed; for Minimal inhibitory concentration (MIC): T. mentagrophytes A. 9129, RPMI-1640, 35° C.
Method in brief: as §1

[10] = test system: Candida krusei K. 11655; conditions: 4 to 48 hours; for Minimal inhibitory concentration(MIC), C. krusei K. 11655: RPMI-1640, 35° C., no growth observed; for Minimal inhibitory concentration (MIC): C. krusei K. 11655, RPMI-1640, 35° C.
Method in brief: as §1

[11] = test system: Torulopsis glabrata B. 16205; conditions: 4 to 48 hours; for Minimal inhibitory concentration(MIC), T. glabrata B. 16205: RPMI-1640, 35° C., no growth observed; for Minimal inhibitory concentration (MIC): T. glabrata B. 16205, RPMI-1640, 35° C.
Method in brief: as §1

[12] = test system: Candida albicans IFO. 1385; conditions: 4 to 48 hours; for Minimal inhibitory concentration(MIC), C. albicans IFO. 1385: RPMI-1640, 35° C., no growth observed; for Minimal inhibitory concentration (MIC): C. albicans IFO. 1385, RPMI-1640, 35° C.
Method in brief: as §1

[13] = test system: Candida albicans A. 10231; conditions: 4 to 48 hours; for Minimal inhibitory concentration(MIC), C. albicans A. 10231: RPMI-1640, 35° C., no growth observed; for Minimal inhibitory concentration (MIC): C. albicans A. 10231, RPMI-1640, 35° C.
Method in brief: as §1

[14] = test system: Candida albicans C1-2; conditions: 4 to 48 hours; for Minimal inhibitory concentration(MIC), C. albicans C1-2: RPMI-1640, 35° C., no growth observed; for Minimal inhibitory concentration (MIC): C. albicans C1-2, RPMI-1640, 35° C.
Method in brief: as §1

[15] = test system: Aspergillus niger A. 16404; conditions: 4 to 48 hours; for Minimal inhibitory concentration(MIC), A. niger A. 16404: RPMI-1640, 35° C., no growth observed; for Minimal inhibitory concentration (MIC): A. niger A. 16404, RPMI-1640, 35° C.
Method in brief: as §1

Row | SMILES | Minimal inhibitory concentration(MIC), C. parapsitosis A. 7330 [1] [µg/mL] | Minimal inhibitory concentration(MIC), Cry. neoformans IFM. 40092 [2] [µg/mL] | Minimal inhibitory concentration(MIC), C. pseudotropicalis K. 11658 [3] [µg/mL] | Minimal inhibitory concentration(MIC), Cry. neoformans A. 34144 [4] [µg/mL] | Minimal inhibitory concentration(MIC), A furnigatus B. 19119 [5] [µg/mL] | Minimal inhibitory concentration(MIC), Cry. neoformans B. 42419 [6] [µg/mL] | Minimal inhibitory concentration(MIC), C. tropicalis A. 13803 [7] [µg/mL] | Minimal inhibitory concentration(MIC), T. mentagrophytes B. 32663 [8] [µg/mL] | Minimal inhibitory concentration(MIC), T. mentagrophytes A. 9129 [9] [µg/mL] | Minimal inhibitory concentration(MIC), C. krusei K. 11655 [10] [µg/mL] | Minimal inhibitory concentration(MIC), T. glabrata B. 16205 [11] [µg/mL] | Minimal inhibitory concentration(MIC), C. albicans IFO. 1385 [12] [µg/mL] | Minimal inhibitory concentration(MIC), C. albicans A. 10231 [13] [µg/mL] | Minimal inhibitory concentration(MIC), C. albicans C1-2 [14] [µg/mL] | Minimal inhibitory concentration(MIC), A. niger A. 16404 [15] [µg/mL] | Minimal inhibitory concentration (MIC) [1] [µg/mL] | Minimal inhibitory concentration (MIC) [2] | Minimal inhibitory concentration (MIC) [3] [µg/mL] | Minimal inhibitory concentration (MIC) [4] [µg/mL] | Minimal inhibitory concentration (MIC) [5] [µg/mL] | other results
1 | FC(Oc1ccc(OCC2COC(Cn3ccnc3)(c3ccc(Cl)cc3Cl)O2)cc1)=C(c1ccc(Oc2ccccc2)cc1)C(F)(F)F (mixture of isomers) [Ex. 100] | >100 | 1.56 | >100 | 6.25 | >100 | 12.5 | >100 | 100 | 100 | >100 | >100 | 6.25 | 50.0 | 100 | >100 | – | – | – | – | – | –
2 | Cc1ccc(C(=C(F)OCC2COC(Cn3ccnc3)(c3ccc(Cl)cc3Cl)O2)C(F)(F)F)cc1C (stereo not drawn) [Ex. 23] | – | – | – | – | – | – | – | – | – | – | – | – | – | – | – | >100 | 0.39 µg/mL (≈ 0.715 µM) | 100 (≈ 183 µM) | 1.56 (≈ 2.86 µM) | 50.0 (≈ 91.7 µM) | Minimal inhibitory concentration (MIC) [6]: 1.56 µg/mL (≈ 2.86 µM); Minimal inhibitory concentration (MIC) [7]: 25.0 µg/mL (≈ 45.8 µM); Minimal inhibitory concentration (MIC) [8]: 6.25 µg/mL (≈ 11.5 µM); Minimal inhibitory concentration (MIC) [9]: 12.5 µg/mL (≈ 22.9 µM); Minimal inhibitory concentration (MIC) [10]: 100 µg/mL (≈ 183 µM); Minimal inhibitory concentration (MIC) [11]: 12.5 µg/mL (≈ 22.9 µM); Minimal inhibitory concentration (MIC) [12]: 0.78 µg/mL (≈ 1.43 µM); Minimal inhibitory concentration (MIC) [13]: 6.25 µg/mL (≈ 11.5 µM); Minimal inhibitory concentration (MIC) [14]: 6.25 µg/mL (≈ 11.5 µM); Minimal inhibitory concentration (MIC) [15]: 100 µg/mL (≈ 183 µM)
3 | CCc1ccc(C(=C(F)OCC2COC(Cn3ccnc3)(c3ccc(F)cc3F)O2)C(F)(F)F)cc1 (mixture of isomers) [Ex. 55] | – | – | – | – | – | – | – | – | – | – | – | – | – | – | – | >100 | ≦0.10 μg/ml | 50.0 | 0.78 | 100 | Minimal inhibitory concentration (MIC) [6]: 0.78 µg/mL; Minimal inhibitory concentration (MIC) [7]: 25.0 µg/mL; Minimal inhibitory concentration (MIC) [8]: 3.13 µg/mL; Minimal inhibitory concentration (MIC) [9]: 6.25 µg/mL; Minimal inhibitory concentration (MIC) [10]: >100 µg/mL; Minimal inhibitory concentration (MIC) [11]: 6.25 µg/mL; Minimal inhibitory concentration (MIC) [12]: 0.78 µg/mL; Minimal inhibitory concentration (MIC) [13]: 12.5 µg/mL; Minimal inhibitory concentration (MIC) [14]: 12.5 µg/mL; Minimal inhibitory concentration (MIC) [15]: >100 µg/mL
4 | FC(OCC1COC(Cn2ccnc2)(c2ccc(F)cc2F)O1)=C(c1cc(Cl)cc(Cl)c1)C(F)(F)F (mixture of isomers) [Ex. 67] | – | – | – | – | – | – | – | – | – | – | – | – | – | – | – | 100 | 0.20 µg/mL | 25.0 | 1.56 | 3.13 | Minimal inhibitory concentration (MIC) [6]: 1.56 µg/mL; Minimal inhibitory concentration (MIC) [7]: 100 µg/mL; Minimal inhibitory concentration (MIC) [8]: 1.56 µg/mL; Minimal inhibitory concentration (MIC) [9]: 6.25 µg/mL; Minimal inhibitory concentration (MIC) [10]: 50.0 µg/mL; Minimal inhibitory concentration (MIC) [11]: 6.25 µg/mL; Minimal inhibitory concentration (MIC) [12]: 0.78 µg/mL; Minimal inhibitory concentration (MIC) [13]: 12.5 µg/mL; Minimal inhibitory concentration (MIC) [14]: 12.5 µg/mL; Minimal inhibitory concentration (MIC) [15]: 100 µg/mL

Second part, led by results:

Row | Minimal inhibitory concentration(MIC), C. parapsitosis A. 7330 [1] [µg/mL] | Minimal inhibitory concentration(MIC), Cry. neoformans IFM. 40092 [2] [µg/mL] | Minimal inhibitory concentration(MIC), C. pseudotropicalis K. 11658 [3] [µg/mL] | Minimal inhibitory concentration(MIC), Cry. neoformans A. 34144 [4] [µg/mL] | Minimal inhibitory concentration(MIC), A furnigatus B. 19119 [5] [µg/mL] | Minimal inhibitory concentration(MIC), Cry. neoformans B. 42419 [6] [µg/mL] | Minimal inhibitory concentration(MIC), C. tropicalis A. 13803 [7] [µg/mL] | Minimal inhibitory concentration(MIC), T. mentagrophytes B. 32663 [8] [µg/mL] | Minimal inhibitory concentration(MIC), T. mentagrophytes A. 9129 [9] [µg/mL] | Minimal inhibitory concentration(MIC), C. krusei K. 11655 [10] [µg/mL] | Minimal inhibitory concentration(MIC), T. glabrata B. 16205 [11] [µg/mL] | Minimal inhibitory concentration(MIC), C. albicans IFO. 1385 [12] [µg/mL] | Minimal inhibitory concentration(MIC), C. albicans A. 10231 [13] [µg/mL] | Minimal inhibitory concentration(MIC), C. albicans C1-2 [14] [µg/mL] | Minimal inhibitory concentration(MIC), A. niger A. 16404 [15] [µg/mL] | Minimal inhibitory concentration (MIC) [1] [µg/mL] | Minimal inhibitory concentration (MIC) [2] | Minimal inhibitory concentration (MIC) [3] [µg/mL] | Minimal inhibitory concentration (MIC) [4] [µg/mL] | Minimal inhibitory concentration (MIC) [5] [µg/mL] | SMILES | other results
5 | 1.56 | 0.20 | 1.56 | 0.78 | >100 | 0.78 | >100 | 1.56 | 6.25 | 1.56 | >100 | 1.56 | >100 | >100 | >100 | – | – | – | – | – | FC(=C(c1ccc2c(c1)OCO2)C(F)(F)F)N1CCN(c2ccc(OCC3COC(Cn4ccnc4)(c4ccc(Cl)cc4Cl)O3)cc2)CC1 (mixture of isomers) [Ex. 132] | –
6 | 3.13 | 0.20 | 1.56 | 0.39 | >100 | 0.78 | >100 | 1.56 | 6.25 | 1.56 | >100 | 1.56 | >100 | >100 | >100 | – | – | – | – | – | COc1ccc(C(=C(F)N2CCN(c3ccc(OCC4COC(Cn5ccnc5)(c5ccc(Cl)cc5Cl)O4)cc3)CC2)C(F)(F)F)cc1 (mixture of isomers) [Ex. 131] | –

Reference: US6376497B1, “Antifungal azole derivatives having a fluorinated vinyl group and process for preparing same” (Korea Research Institute of Chemical Technology, priority 1999, dated 2002)
